In general, IC50 refers to the concentration that inhibits the measured activity by half.

Read-outs that look alike come from different tables or passages of the source.

Format in all cases: cell-based
The target of one test is T1, OATP1B1 (Homo sapiens, UniProt Q9Y6L6).
T1 construct: expressed in transfected cells; host or cells: A431 cells
T1 sequence (Q9Y6L6 1-691): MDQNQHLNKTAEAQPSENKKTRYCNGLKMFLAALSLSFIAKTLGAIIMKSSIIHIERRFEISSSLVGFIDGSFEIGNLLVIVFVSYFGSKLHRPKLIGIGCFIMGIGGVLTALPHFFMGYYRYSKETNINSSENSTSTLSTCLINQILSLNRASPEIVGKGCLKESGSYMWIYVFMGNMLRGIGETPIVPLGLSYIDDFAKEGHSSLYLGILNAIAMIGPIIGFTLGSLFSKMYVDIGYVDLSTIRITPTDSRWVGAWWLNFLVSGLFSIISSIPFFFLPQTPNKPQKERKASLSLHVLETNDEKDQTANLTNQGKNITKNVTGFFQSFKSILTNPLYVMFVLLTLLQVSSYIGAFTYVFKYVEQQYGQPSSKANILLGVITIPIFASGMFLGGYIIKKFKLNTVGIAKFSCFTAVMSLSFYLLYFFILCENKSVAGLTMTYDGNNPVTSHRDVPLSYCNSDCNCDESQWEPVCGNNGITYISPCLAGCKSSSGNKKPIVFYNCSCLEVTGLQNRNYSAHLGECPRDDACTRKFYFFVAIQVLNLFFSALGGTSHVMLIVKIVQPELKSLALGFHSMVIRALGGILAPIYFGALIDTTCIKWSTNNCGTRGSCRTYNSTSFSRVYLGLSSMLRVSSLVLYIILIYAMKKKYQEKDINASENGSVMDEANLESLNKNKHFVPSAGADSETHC
The test can be described thus: Pyranine transport inhibition in A431 cells overexpressing OATP1B1. The procedure:
(§1) A431 cells overexpressing OATP1B1, OATP1B3, or OATP2B1 or their mock transfected controls were generated previously[30] and maintained in Dulbecco’s modified Eagle medium (DMEM, Gibco, Thermofisher Scientific, Waltham, MA, US) supplemented with 10% fetal bovine serum, 2 mM L-glutamine, 100 units/mL penicillin, and 100 μg/mL streptomycin. Expression and function of OATPs in the cell lines were checked regularly.
(§2) Interaction with OATP1B1, OATP1B3, or OATP2B1 was tested in an indirect transport assay using pyranine (8-hydroxypyrene-1,3,6-trisulfonic acid trisodium salt, H1529, Sigma, Merck, Budapest, Hungary) as the test substrate[31],[32] A431 cells overexpressing OATP1B1, OATP1B3, or OATP2B1 or their mock transfected controls were seeded on 96-well plates in a density of 8 × 10^4 cells per well in 200 μL of cell culture medium 1 day prior to the transport measurements. […] The transport reaction was started by the addition of 50 μL of uptake buffer containing pyranine in a final concentration of 10 μM (OATP1B1) or 20 μM (OATP1B3 and OATP2B1), and the cells were further incubated at 37 °C for 15 min (OATP1B1 and OATP2B1) or 30 min (OATP1B3). The reaction was stopped by removing the supernatant. After repeated washing with ice-cold PBS, fluorescence was determined in an Enspire plate reader (PerkinElmer, Waltham, MA) with excitation/emission wavelengths of 460/510 nm. OATP-dependent transport was calculated by extracting fluorescence measured in mock transfected cells and normalized to the fluorescence signal obtained in the absence of the tested compounds (100%). Experiments were repeated in at least three biological replicates.

Another test addresses T2, OATP1B3 (Homo sapiens, UniProt Q9NPD5).
T2 construct: expressed in transfected cells; host or cells: A431 cells
T2 sequence (Q9NPD5 1-702): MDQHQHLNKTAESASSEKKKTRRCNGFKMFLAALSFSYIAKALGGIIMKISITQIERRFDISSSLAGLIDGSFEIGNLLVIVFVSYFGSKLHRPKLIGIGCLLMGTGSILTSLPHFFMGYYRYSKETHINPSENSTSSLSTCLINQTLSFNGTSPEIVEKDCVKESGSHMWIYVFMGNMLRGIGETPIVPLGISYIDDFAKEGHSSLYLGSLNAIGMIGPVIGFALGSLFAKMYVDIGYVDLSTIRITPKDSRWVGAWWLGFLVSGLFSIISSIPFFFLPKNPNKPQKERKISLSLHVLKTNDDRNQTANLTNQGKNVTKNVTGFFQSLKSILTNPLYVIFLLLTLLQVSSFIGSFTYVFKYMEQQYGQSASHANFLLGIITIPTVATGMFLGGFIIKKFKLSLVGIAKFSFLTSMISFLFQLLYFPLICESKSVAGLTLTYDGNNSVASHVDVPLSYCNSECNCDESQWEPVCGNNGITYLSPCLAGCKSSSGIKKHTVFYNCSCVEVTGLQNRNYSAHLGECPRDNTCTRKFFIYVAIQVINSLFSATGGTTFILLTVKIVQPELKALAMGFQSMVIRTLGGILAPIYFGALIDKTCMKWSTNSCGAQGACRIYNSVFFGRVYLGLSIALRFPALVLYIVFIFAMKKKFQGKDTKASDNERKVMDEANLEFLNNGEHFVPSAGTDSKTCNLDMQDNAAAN
Nature of the test: Pyranine transport inhibition in A431 cells overexpressing OATP1B3. The note with it: category by concentration needed for 50% inhibition, pyranine 20 μM, 30 min, pH 5.5. The procedure: as §1, §2

For the next test, the target named is T3, OATP2B1 (Homo sapiens, UniProt O94956).
T3 construct: expressed in transfected cells; host or cells: A431 cells
T3 sequence (O94956 1-709): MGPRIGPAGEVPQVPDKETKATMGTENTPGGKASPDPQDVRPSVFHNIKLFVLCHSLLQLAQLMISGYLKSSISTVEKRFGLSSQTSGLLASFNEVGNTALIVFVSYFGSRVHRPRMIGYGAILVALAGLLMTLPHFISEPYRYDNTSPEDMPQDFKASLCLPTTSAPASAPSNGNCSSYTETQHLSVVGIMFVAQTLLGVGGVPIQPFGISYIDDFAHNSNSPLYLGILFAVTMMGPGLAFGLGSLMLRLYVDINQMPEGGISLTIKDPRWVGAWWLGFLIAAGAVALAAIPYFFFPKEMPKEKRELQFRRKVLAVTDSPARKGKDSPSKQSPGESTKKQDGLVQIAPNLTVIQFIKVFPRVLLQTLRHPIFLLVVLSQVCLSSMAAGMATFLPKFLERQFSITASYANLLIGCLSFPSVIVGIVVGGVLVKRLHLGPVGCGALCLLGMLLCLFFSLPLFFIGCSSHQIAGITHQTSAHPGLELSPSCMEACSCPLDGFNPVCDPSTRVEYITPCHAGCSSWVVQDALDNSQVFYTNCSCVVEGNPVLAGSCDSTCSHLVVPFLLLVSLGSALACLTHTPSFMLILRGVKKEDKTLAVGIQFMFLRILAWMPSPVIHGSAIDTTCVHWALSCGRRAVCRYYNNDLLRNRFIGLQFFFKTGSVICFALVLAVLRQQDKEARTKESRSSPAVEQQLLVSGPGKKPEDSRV
Nature of the test: Pyranine transport inhibition in A431 cells overexpressing OATP2B1. The note with it: category by concentration needed for 50% inhibition, pyranine 20 μM, 15 min, pH 5.5. The procedure: as §1, §2

Where [1] appears, read: initial three-point screen (1, 10, 100 μM), category by concentration needed for 50% inhibition, pyranine 10 μM, 15 min, pH 5.5.
[2] abbreviates: initial three-point screen (1, 10, 100 μM).
[3] abbreviates: IC50 (μM) OATP2B1, initial three-point screen (1, 10, 100 μM).
Where [4] appears, read: initial three-point screen (1, 10, 100 μM), category by concentration needed for 50% inhibition, pyranine 10 μM, 15 min, pH 5.5, read-out: IC50 (μM) OATP1B1.
Where [5] appears, read: initial three-point screen (1, 10, 100 μM), read-out: IC50 (μM) OATP1B3.
[6] abbreviates: initial three-point screen (1, 10, 100 μM), read-out: IC50 (μM) OATP2B1.

Regarding `Cc1cc(C)c(C(=O)CSc2nc3ccccc3c(=O)n2Cc2ccc(F)cc2)c(C)c1` [H4, Cc1cc(C)c(C(=O)CSC2=Nc3ccccc3C(=O)N2Cc4ccc(F)cc4)c(C)c1], the “IC50 (μM) OATP1B1” value against OATP1B1 (setting [1]) is “no effect”. The “IC50 (μM) OATP1B3” value on OATP1B3 (setting [2]) is “no effect”. The “IC50 (μM) OATP2B1” value against OATP2B1 (setting [2]) is reported as “no effect”.

Turning to `Cc1ccc(NC(=O)C(Sc2nnc3n2CCCCC3)c2ccccc2)cc1Cl` (stereo not drawn) [B2, Cc1ccc(NC(=O)C(Sc2nnc3CCCCCn23)c4ccccc4)cc1Cl], the “IC50 (μM) OATP1B1” value against OATP1B1 (setting [1]) was “no effect”. Moreover, the IC50 against OATP1B3 (IC50 (μM) OATP1B3, initial three-point screen (1, 10, 100 μM)) is over 10 µM; against OATP2B1 (setting [3]), over 10 µM.

For `O=C(CSc1nc2cc(C(F)(F)F)ccc2n1Cc1ccccc1)c1ccc[nH]1` [B6, FC(F)(F)c1ccc2c(c1)nc(SCC(=O)c3ccc[nH]3)n2Cc4ccccc4], the IC50 on OATP1B1 (setting [4]), on OATP1B3 (setting [5]) and on OATP2B1 (setting [6]) was over 10 µM in each case.

For `O=C(Nc1ccccc1)N1CCCC(C(=O)N2CCN(Cc3nc4ccccc4s3)CC2)C1` (stereo not drawn) [F3, O=C(Nc1ccccc1)N2CCCC(C2)C(=O)N3CCN(Cc4nc5ccccc5s4)CC3], the concentration for half-maximal inhibition (IC50) at OATP1B1 (setting [4]), at OATP1B3 (setting [5]) and on OATP2B1 (setting [6]) was over 10 µM throughout.

In the case of `O=C(Nc1ccccc1)C1CCN(C(=O)c2cc(-c3ccccc3)nc3ccccc23)CC1` [G2, O=C(Nc1ccccc1)C2CCN(CC2)C(=O)c3cc(nc4ccccc34)c5ccccc5], the IC50 at OATP1B1 (setting [4]), on OATP1B3 (setting [5]) and at OATP2B1 (setting [6]) was 1 to 10 µM each time.

In the case of `O=C(CC12CC3CC(CC(C3)C1)C2)NCC(=O)N1CCN(S(=O)(=O)c2ccccc2F)CC1` [B3, Fc1ccccc1S(=O)(=O)N2CCN(CC2)C(=O)CNC(=O)CC34CC5CC(CC(C5)C3)C4], the values for the IC50 at OATP1B1 (setting [4]), at OATP1B3 (setting [5]) and on OATP2B1 (setting [6]) were over 10 µM, over 10 µM and 1 to 10 µM, respectively.

With `Fc1ccccc1-c1cc(-c2ccccc2)c2c3c(sc2n1)CCCC3` [A4, Fc1ccccc1c2cc(c3ccccc3)c4c5CCCCc5sc4n2], the “IC50 (μM) OATP1B1” value against OATP1B1 (setting [1]) is listed as “no effect”. Besides, the “IC50 (μM) OATP1B3” value against OATP1B3 (setting [2]) is reported as “no effect”. The IC50 on OATP2B1 (setting [6]) is over 10 µM.

On to `O=C(COc1ccc([N+](=O)[O-])cc1)Nc1c(C(=O)N2CCOCC2)oc2ccccc12` [D7, [O-][N+](=O)c1ccc(OCC(=O)Nc2c(oc3ccccc23)C(=O)N4CCOCC4)cc1], for which the IC50 at OATP1B1 and against OATP2B1 (setting [3]) was over 10 µM in each case. For the same molecule, the “IC50 (μM) OATP1B3” value against OATP1B3 (setting [2]) is recorded as “no effect”.

On to `CC(OC(=O)C1CCN(S(=O)(=O)c2ccc3c(c2)OCCO3)CC1)C(=O)Nc1cccc(C#N)c1` (stereo not drawn) [H3, CC(OC(=O)C1CCN(CC1)S(=O)(=O)c2ccc3OCCOc3c2)C(=O)Nc4cccc(c4)C#N], for which the IC50 on OATP1B1 (setting [4]) and on OATP2B1 (setting [6]) was 1 to 10 µM in each case.

`CC(=O)Nc1ccc(S(=O)(=O)Nc2nc3ccccc3nc2NCc2ccccc2)cc1` [H6, CC(=O)Nc1ccc(cc1)S(=O)(=O)Nc2nc3ccccc3nc2NCc4ccccc4]: the “IC50 (μM) OATP1B1” value against OATP1B1 (setting [1]) is given as “no effect”. In addition, the “IC50 (μM) OATP1B3” value against OATP1B3 (setting [2]) is “no effect”. In addition, the IC50 at OATP2B1 (setting [6]) is over 10 µM.

Take `Cc1cc(C)n2nc(SCc3ccccc3C(=O)NCCc3ccc4c(c3)OCCO4)nc2n1` [C2, Cc1cc(C)n2nc(SCc3ccccc3C(=O)NCCc4ccc5OCCOc5c4)nc2n1]: the IC50 at OATP1B1 (setting [4]) and at OATP2B1 (setting [6]) was 1 to 10 µM each time.

For `O=C(OCC(=O)N(C1CCCCC1)C1CCCCC1)c1nn(-c2ccccc2)c(=O)c2ccccc12` [D5, O=C(COC(=O)C1=NN(C(=O)c2ccccc12)c3ccccc3)N(C4CCCCC4)C5CCCCC5], the IC50 on OATP1B1 (setting [4]) and at OATP1B3 (setting [5]) was over 10 µM throughout.

With `O=C(CN1C(=O)NC2(CCCc3ccccc32)C1=O)Nc1nnc(C23CC4CC(CC(C4)C2)C3)s1` (stereo not drawn) [D6, O=C(CN1C(=O)NC2(CCCc3ccccc23)C1=O)Nc4nnc(s4)C56CC7CC(CC(C7)C5)C6], the concentration for half-maximal inhibition (IC50) on OATP1B1 (setting [4]) was over 10 µM; on OATP2B1 (setting [6]) it was 1 to 10 µM.

Take `CC(OC(=O)c1cc(Cl)c2c(c1)OCCCO2)C(=O)c1ccc2c(c1)NC(=O)CO2` (stereo not drawn) [D4, CC(OC(=O)c1cc(Cl)c2OCCCOc2c1)C(=O)c3ccc4OCC(=O)Nc4c3]: the IC50 on OATP2B1 (setting [6]) was 1 to 10 µM.

Consider `O=C(Nc1ccccc1)c1ccccc1OCC(=O)N1CCN(C(=O)c2ccco2)CC1` [F2, O=C(COc1ccccc1C(=O)Nc2ccccc2)N3CCN(CC3)C(=O)c4occc4], for which the IC50 was over 10 µM at OATP1B3 (setting [5]) and 1 to 10 µM on OATP2B1 (setting [6]).

For `O=C(CCc1ncc(-c2c(F)cccc2F)o1)N1CCN(S(=O)(=O)c2ccccc2F)CC1` [G3, Fc1cccc(F)c1c2oc(CCC(=O)N3CCN(CC3)S(=O)(=O)c4ccccc4F)nc2], the IC50 on OATP1B3 (setting [5]) was over 10 µM; on OATP2B1 (setting [6]), 1 to 10 µM.

For `CC1CCN(c2nnc(SCC(=O)NCC3COc4ccccc4O3)n2C2CC2)CC1` (stereo not drawn) [E4, CC1CCN(CC1)c2nnc(SCC(=O)NCC3COc4ccccc4O3)n2C5CC5], the IC50 was over 10 µM at OATP1B3 (setting [5]) and 1 to 10 µM on OATP2B1 (setting [6]).

The record behind these values is article PMC9795544, “Identifying Novel Inhibitors for Hepatic Organic Anion Transporting Polypeptides by Machine Learning-Based Virtual Screening” (Journal of Chemical Information and Modeling, 2022).
